Data from PubChem BioAssay (NCI).
“And” between values parts separate entries of the source, which are not always exact repeats. Identical values can stand only once.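 Briefly, cells in 96-well plates were exposed to five compound concentrations for 48 h, and endpoints were estimated by linear interpolation. At the GI50, growth is halved. TGI: concentration producing complete growth inhibition.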

How the values were obtained:
Assay in all cases: NCI anticancer screen, dose series, 48 h
[1] = system: U251 CNS
[2] = system: NCI-H226 lung
[3] = system: CAKI-1 renal
[4] = system: EKVX NSCLC
[5] = system: SNB-75 CNS
[6] = system: 786-0 renal
[7] = system: SF-268 CNS
[8] = system: SK-MEL-28 melanoma
[9] = system: A549 NSCLC
[10] = system: MDA-N

Structure (SMILES) | TGI [1] [µM] | TGI [2] [µM] | TGI [3] | TGI [4] [µM] | TGI [5] [µM] | TGI [6] [µM] | TGI [7] [µM] | TGI [8] [µM] | TGI [9] [µM] | GI50 [1] | GI50 [2] [µM] | GI50 [3] | GI50 [4] [µM] | GI50 [5] [µM] | GI50 [7] [µM] | GI50 [8] [µM] | GI50 [9] [µM] | TGI [10] [µM] | GI50 [10]
CC[C@@]12CCC(=S)N(CCSc3ccccc3)[C@@H]1c1c(n(S(=O)(=O)c3ccc(OC)cc3)c3ccccc13)CC2 | > 100 | > 100 | > 100 µM | > 100 | > 100 | > 100 | > 100 | > 100 | > 100 | – | – | – | – | – | – | – | – | – | –
CC(C)=CC(=O)c1c(C(=O)O)nc2ccccc2[n+]1[O-] | > 100 | > 100 | > 100 µM | > 100 | > 100 | > 100 | > 100 | > 100 | > 100 | – | – | – | – | – | – | – | – | – | –
O=C(O)CCC1NC(/C(=C/c2ccccc2O)NC(=O)c2ccccc2)OC1=O (stereo not given) | > 100 | > 100 | > 100 µM | > 100 | 72.4 | > 100 | > 100 | > 100 | > 100 | – | – | – | – | – | – | – | – | – | –
CN(/N=C\c1ccc2ccccc2c1)C1=NCCCN1 | 96.6 | 40.4 | 22.7 µM | 53.8 | 91.2 | 29.1 | 60.2 | 29.8 | 24.7 | – | – | – | – | – | – | – | – | – | –
N#Cc1c(N)nc(Sc2ccccc2N)c(C#N)c1-c1ccccc1 | 60.2 | > 100 | > 100 µM | > 100 | – | 63.3 | 75.3 | > 100 | > 100 | – | – | – | – | – | – | – | – | – | –
COc1cc2c(cc1OCCCOc1ccc(-c3cc4ccccc4c4ccccc34)cc1)N=C[C@@H]1CCCN1C2=O | 2.11 | 2.73 | 1.65 µM | 2.3 | 1.41 | – | 2.08 | 1.38 | 2.01 | 0.91 µM | 1.28 | 0.535 µM | 1.1 | 0.261 | 0.86 | 0.555 | 0.724 | – | –
CN(C)C(=O)Oc1ccc(C(=S)Nc2ccccc2)cc1 | > 100 | – | > 100 µM | > 100 | – | > 100 | > 100 | > 100 | > 100 | – | – | – | – | – | – | – | – | > 100 | –
Cc1ccccc1Nc1nc2ccccc2nc1NS(=O)(=O)c1ccccc1 | > 100 | > 100 | > 100 µM | > 100 | > 100 | > 100 | > 100 | > 100 | > 100 | – | – | – | – | – | – | – | – | – | –
Cc1cc(C)n2c(nc3ccccc32)c1C#N | > 100 | > 100 | > 100 µM | > 100 | – | > 100 | – | > 100 | > 100 | – | – | – | – | – | – | – | – | > 100 | –
Cc1ccc(NC(=O)C(=O)Cc2cccc[n+]2[O-])cc1C | > 100 | > 100 | > 100 µM | > 100 | > 100 | > 100 | > 100 | > 100 | > 100 | – | – | – | – | – | – | – | – | – | –
COc1ccc(C23OCC(Cc4cc(OC)c(OC)cc42)C3CO)cc1OC (stereo not given) | > 100 | > 100 | > 100 µM | > 100 | > 100 | > 100 | – | > 100 | > 100 | – | – | – | – | – | – | – | – | – | –
O=CC1=CCC2c3[nH]c4ccccc4c3CCN2C1 (stereo not given) | 195 | 385 | > 396 µM | > 396 | – | > 396 | > 396 | 248 | > 396 | – | – | – | – | – | – | – | – | – | –
CC1(Cl)CC(C)(/C=C/Cl)C(Cl)CC1Cl (stereo not given) | 30.8 | – | 33.3 µM | 26.4 | 41.4 | 29.1 | 31.1 | 29.4 | 31.1 | – | – | – | – | – | – | – | – | – | –
C(=C\c1c2oc(-c3ccccc3)cc(-c3ccccc3)c-2c2ccccc12)/C=C1\c2ccccc2-c2c(-c3ccccc3)cc(-c3ccccc3)[o+]c21 | > 100 | > 100 | – | > 100 | > 100 | > 100 | > 100 | > 100 | > 100 | – | – | – | – | – | – | – | – | – | –
O=C(c1ccccc1)c1cc(Cl)ccc1NCn1nnc2ccccc21 | > 100 | > 100 | – | > 100 | > 100 | > 100 | – | – | > 100 | – | – | – | – | – | – | – | – | – | –
CC(C)=CCCC1(C)C2COC(=O)C21 (stereo not given) | > 100 | > 100 | > 100 µM and 30.7 µM | > 100 | – | > 100 | > 100 | > 100 | – | > 100 µM and 43.5 µM | > 100 | > 100 µM and 16 µM | – | – | – | – | – | > 100 | > 100 µM and 31.7 µM
COC(=O)C(NC(=O)c1ccccc1)C(c1c(O)cc(O)cc1O)P(=O)(OC)OC (stereo not given) | > 100 | > 100 | > 100 µM | > 100 | > 100 | – | > 100 | > 100 | > 100 | – | – | – | – | – | – | – | – | – | –
CCCCCCCCCCCCC1N=C(N)NC2(CCCO2)C1C(=O)OC (stereo not given) | 3.2 | 36.9 | 30.6 µM | 36.6 | 7.99 | 16.9 | 14.8 | 21.6 | 30.9 | – | – | – | – | – | – | – | – | – | –
Cn1c(NC(=O)NC23CC4CC(CC(C4)C2)C3)nc2ccccc21 | > 100 | > 100 | > 100 µM | > 100 | 21.1 | 81.5 | > 100 | > 100 | > 100 | – | – | – | – | – | – | – | – | – | –
